Reference: patent US9512138B2, “Compositions and methods for treating cancer” (The Regents of the University of California, priority 2012, dated 2016)
“Also recorded” adds a separate entry of the source. Counter-ions that a name gives are not always drawn.

How the values were obtained:
[1] = system: A549, H23, H2122 and H1975 NSCLC cells; experiment: MTS cell viability/proliferation assay in NSCLC cell lines, 72 h; assay type: cell-based, human; settings: for growth inhibition at 10 μM / growth inhibition at 100 μM: A549, H23, H2122, H1975; for inhibitory activity relative to other analogues: FIG. 5, 0.1-100 μM
Protocol: FIG. 5. Parthenolide analogues JD201-JD210 suppress human lung tumor cell proliferation in vitro. A549, H23, H2122 and H1975 NSCLC cells were treated with increasing concentrations of drugs (0.1-100 μM). After 72 h cell viability was assessed by MTS assay. Viable cells are expressed as percentage of vehicle control. P<0.01 (**), versus control group, P<0.05 (*), versus control group. Natural occurring parthenolide (PTL), parthenolide analogues JD201 (DMAPT)-JD210. Parthenolide analogues inhibit female (H1975, H2122) and male (H23, A549) NSCLC cell proliferation.
To determine the effect of parthenolide analogues in lung cancer cell proliferation we tested two male (A549, H23) and two female (H2122, H1975) lung cancer cell lines with increasing concentrations of parthenolide analogues (0.1, 1, 10 and 100 μM) for 72 hours.

[2] = system: NF-κB/p65 phosphorylation; experiment: Western blot of phospho-NF-κB/p65 in H23 cells; assay type: cell-based, human; settings: for phosphorylation of the p65 subunit of NF-κB: 10 μM, 60 min (FIG. 7); for phosphorylation of NF-κB/p65: 10 µM, 60 min (FIG. 13)
Protocol: FIG. 7. […] After 60 min Western blot were performed using anti-phospho-NF-κB/p65 antibody (Cell Signaling Technology #3031). Membranes were stripped and re-probed with antibody against total NF-κB/p65 (CST #3037).
After 60 min, Western blots were done using anti-phospho-NFκB/p65 antibody (Cell Signaling).
Upon confirming that parthenolide analogues can inhibit NSCLC cell proliferation, induce cell death and enhance the cytotoxicity of chemotherapy, we began to investigate potential cellular mechanisms that may underlie this process. For example, we used Western Blot methods to determine phosphorylation of the p65 subunit of NF-κB. H23 cells were incubated in the presence of vehicle control or 10 μM concentration of the parthenolide derivatives (JD 201, 202, 203, 204) for 60 min. After treatment, cells were collected and homogenized in lysis buffer. Extracts were electrophoresed on 4-20% gradient SDS-PAGE gels and transferred to nitrocellulose membranes. Blots were probed with anti-phospho-NF-κB/p65 and NF-κB/p65 for a loading control.

[3] = system: NF-κB/p65 phosphorylation; experiment: Western blot of cisplatin-mediated phospho-NF-κB/p65 in A549 cells; assay type: cell-based, human; settings: 5 μM cisplatin and/or 20 μM analog, time course
Protocol: FIG. 9. […] Western blots were then performed using anti-phospho-NF-κB/p65 antibody (Cell Signaling Technology #3036) and anti-phospho-IκBα antibody (CST #2859). Membranes were then stripped and reprobed with antibody against total NF-κB/p65 (CST #3987) and antibody against total IκBα (CST #4814).

[4] = system: MCF-7/TAMR breast cancer cells; experiment: Proliferation of tamoxifen-resistant MCF-7/TMR (TAM-R) cells; assay type: cell-based, human; settings: analogue at varying doses plus tamoxifen 1×10^-7 M, 48 hours; P<0.01
Protocol: MCF-7/CON cells are tamoxifen-sensitive, while MCF-7/HER2 and MCF-7/TMR cells are known to be tamoxifen-resistant (28,61,66,67). Except for TMR (64,68), cells were routinely cultured in RPMI 1640 media with 10% heat-inactivated FBS (28,64,66). For E2-free conditions, media were changed 48 h before studies to phenol-red free RPMI 1640 with 1% dextran-coated, charcoal-treated (DCC) FBS. TMR cells were derived by long-term continuous exposure of cells to 10^−7 M 4-hydroxy-tamoxifen by established methods (64,68) and were maintained with 10^−7 M 4-hydroxytamoxifen in medium. Levels of ERα and HER2 expression in these several cell lines were determined by use of Western blot methods.
Assays for Tumor Cell Proliferation. Breast tumor cells were be grown in RPMI 1640 media with 10% heat-inactivated FBS (except for TMR and TZR cells as noted above). For estrogen-free conditions, medium were changed 48 h before studies to phenol-red free RPMI 1640 with 1% dextran-coated, charcoal-treated (DCC) FBS, then treated with selected reagents. Cell counts and viability tests (Trypan blue) will be done every 24 hr for […]. After 48-72 hr, proliferation was assessed by cell counts.

SKBR3/TZR cells = experiment: Proliferation of trastuzumab-resistant SKBR3/TZR cells; assay type: cell-based, human; parameters: dose or concentration left out as unconfirmed; settings: 0.1 to 50 micromolar alone or with trastuzumab, 72 hours
Protocol: Assays for Tumor Cell Proliferation. […] Cell counts and viability tests (Trypan blue) will be done every 24 hr for […]. After 48-72 hr, proliferation was assessed by cell counts.
The human breast cancer cell line SKBR3 (ATCC) was obtained from the American Type Culture Collection (ATCC). Unless otherwise stated, monolayer cultures of SKBR3 were maintained in Dulbeccos' Modified Eagle's Media (DMEM):F12 medium with 10% FBS.

ELT3 cells = experiment: Proliferation of ELT3 cells (TSC-related disease model); assay type: cell-based, rat; settings: 72 hours, IIA medium with 1% FBS, cell counts
Protocol: (§1) FIG. 19. […] Cells were counted and plated and then treated with parthenolide analogue JD203 or control for 72 hours using IIA medium with 1% FBS. At the end of the experiments, cell proliferation was quantitated based on cell counts. Experimental results (n=3) shown as % control (mean±SE).
(§2) We have tested inhibitory activity of parthenolide analogues using cell models for TSC-related proliferative disease. The ELT3 cells are a TSC2-null smooth muscle-derived cell line from a rat uterine leiomyoma and often used as a model for lymphangioleiomyomatosis (LAM) and other TSC-related proliferative diseases (75,76). Angiomyolipoma cells (AML) that have inactivating mutations in both alleles of the TSC2 gene were also used as an alternate cell model (77,78). Cells were routinely cultured in IIA complete medium (50% DMEM, 50% F-12, […] NaHCO3, […] FeSO4, 50 nM sodium selenite, […] insulin, 200 nM hydrocortisone, […] transferrin, 1 nM triiodothyronine, 10 mU/ml vasopressin, 10 nM cholesterol, 10 ng/ml epidermal growth factor) containing 15% FBS. For study of proliferation, cells were incubated for 3 days in IIA medium containing 1% FBS. Results of these experiments indicate that parthenolides may also have utility in the treatment of TSC-related proliferative diseases that are not classified as malignancies.

[5] = system: angiomyolipoma (AML) cells; experiment: Proliferation of angiomyolipoma (AML) cells; assay type: cell-based; settings: 72 hours, IIA medium with 1% FBS, cell counts
Protocol: as §1, §2

Aqueous solubility = assay type: physicochemical
cancer cells = experiment: Structure-activity study of antitumor activity; settings: compared to other known parthenolide derivatives such as DMAPT
Excerpt: We have developed a set of novel analogues of parthenolide which have both improved aqueous solubility and antitumor properties. An extensive structure-activity study was done to investigate parthenolide and its analogues. […] These water-soluble compounds, for example analog JD206, may be conjugated to sugars or peptides that may be selectively targeted to cancer cells, particularly cancer stem cells.

MCF-7/HER2 cells = experiment: Proliferation of tamoxifen-resistant MCF-7/HER2 cells (cell counts); settings: 72 hours; for proliferation of MCF-7/HER2 cells: 0.1-50 micromolar, cell counts, P<0.001 vs controls
Protocol: Assays for Tumor Cell Proliferation. […] Cell counts and viability tests (Trypan blue) will be done every 24 hr for 2-33 days. After 48-72 hr, proliferation was assessed by cell counts.

[6] = system: cancer stem cells (CSC) derived from NSCLC (H157); experiment: Annexin-V apoptosis assay in lung cancer stem cells; assay type: cell-based, human; settings: compared with bulk NSCLC cells, 3 independent experiments
Protocol: FIG. 3. […] A comparison is performed using bulk NSCLC cells. Results based on annexin-V assays in 3 independent experiments.
Analogues of parthenolide were prepared and purified (FIG. 8) and assessed for antitumor efficacy, to develop the best agents for clinical use. Responses of CSC-like subsets, bulk tumor cells and normal lung epithelial cells to parthenolide (PTL) analogues alone and with chemotherapy are ongoing, with assessments by TUNEL and Annexin-V assay for apoptosis (13) (FIG. 3) and cell proliferation (FIG. 4).

[7] = system: H157 NSCLC cells (bulk and CSC-subpopulations); experiment: Proliferation of NSCLC bulk cells and CSC subpopulations; assay type: cell-based, human; settings: bulk cell preparations and CSC-subpopulations; drug dose 20 micromolar; P<0.05 vs control
Excerpt: FIG. 4. […] JD201 drug dose=20 micromolar.
Lung cancer is the leading cause of cancer death in men and women worldwide. The poor prognosis of advanced non-small cell lung cancer (NSCLC) is due, in part, to emergence of tumor resistance to chemotherapy. […] If such minute subsets of CSC drive tumor formation and drug resistance, therapies targeting the bulk tumor mass but not CSC will fail. […] We identified CD133+/ALDH+ tumor stem/progenitor cells from human lung cancer cells in vitro using established Aldefluor assays in combination with labeled anti-CD133 antibodies. […] The antitumor effect of PTL may be due to its action as a potent inhibitor of nuclear factor-KB (NF-κB), which is markedly activated by chemotherapy. To target CSC and suppress tumor progression, we synthesized and tested novel analogs of PTL with improved antitumor properties and aqueous solubility. […] Dose-dependent increments of PTL analogs increase apoptosis of CSC when compared with bulk cells. […] Using Western blots, we find that PTL congeners inhibit phosphorylation of the p65 subunit of phospho-NF-κB and activation of IKKα/β. […]
Analogues of parthenolide were prepared and purified (FIG. 8) and assessed for antitumor efficacy, to develop the best agents for clinical use. […]

A549 NSCLC xenografts = A549 NSCLC xenografts in immunodeficient mice; assay type: in vivo

Structure (SMILES)	growth inhibition at 10 μM [1]	growth inhibition at 100 μM [1]	inhibitory activity relative to other analogues [1]	phosphorylation of the p65 subunit of NF-κB [2]	phosphorylation of NF-κB/p65 [2]	cisplatin-mediated phosphorylation of NF-κB/p65 [3]	proliferation of MCF-7/TAMR cells, combination with tamoxifen [4]	proliferation of SKBR3/TZR cells (SKBR3/TZR cells)	proliferation of ELT3 cells (ELT3 cells)	proliferation of angiomyolipoma (AML) cells [5]	water solubility compared to DMAPT (JD201) (Aqueous solubility)	anticancer activity compared to DMAPT (JD201) (cancer cells)	proliferation of MCF-7/HER2 cells (MCF-7/HER2 cells)	proliferation of MCF-7/HER2 cells, combination with tamoxifen (MCF-7/HER2 cells; analogue 0.1 to 50 micromolar with tamoxifen 1×10^-7 M, P<0.01)	apoptosis of cancer stem cells (annexin-V) [6]	proliferation of NSCLC cells [7]	phosphorylation of the p65 subunit of NF-κB ([2]; listed as 201)	phosphorylation of the p65 subunit of NF-κB ([2]; listed as JD 201)	tumor progression (A549 NSCLC xenografts; oral gavage 100 mg/kg/day for 21 days vs vehicle control)	tumor volumes (A549 NSCLC xenografts; oral gavage 100 mg/kg/day for 21 days, vehicle controls 252±31 mm^3) [mm^3]
C/C1=C/CC[C@@]2(C)OC2[C@H]2OC(=O)[C@@H](CN(CCO)CCO)[C@@H]2CC1.O=C(O)/C=C/C(=O)O (stereo partly drawn) [JD203, (1aR,7aS,8R,10aS,Z)-8-((Bis(2-hydroxyethyl)amino)methyl)-1a,5-dimethyl-2,3,6,7,7a,8,10a, 10b-octahydrooxireno[2′,3′:9,10]cyclodeca[1,2-b]furan-9(1aH)-one, fumaric acid salt]	Significant growth inhibition	Significant growth inhibition	greater inhibitory activity than compounds 205 and 207	reduced phosphorylation of the p65 subunit of NF-κB; also recorded: inhibit phosphory-lation of NF-κB/p65	inhibit phosphorylation of NF-κB/p65	inhibit cisplatin-mediated phosphorylation of NF-κB/p65	enhanced blockade of tumor cell proliferation; also recorded: promotes antitumor effects of tamoxifen	reduces proliferation of SKBRS/TZR cells alone and in combination with trastuzumab	inhibits proliferation	inhibits proliferation	improved water solubility	strong anticancer activity	dose-dependent (0.1-50 micromolar) reduction in proliferation	greater reduction in cell proliferation than treatment with the analogue alone						
C/C1=C\CC[C@@]2(C)O[C@H]2[C@H]2OC(=O)[C@@H](CN(C)C)[C@@H]2CC1 [JD201, (1aR,7aS,8R,10aS,Z)-8-((Dimethylamino)methyl)-1a,5-dimethyl-2,3,6,7,7a,8,10a,10b-octa-hydrooxireno[2′,3′:9,10]cyclodeca[1,2-b]furan-9(1aH)-one, fumaric acid salt, reference compound]	Significant growth inhibition	Significant growth inhibition	greater inhibitory activity than compounds 205 and 207		inhibit phosphorylation of NF-κB/p65								dose-dependent (0.1-50 micromolar) reduction in proliferation		dose-dependent increments in apoptosis	inhibits proliferation	inhibit phosphory-lation of NF-κB/p65	reduced phosphorylation of the p65 subunit of NF-κB	reduction in tumor progression	55±5
